The source of these data is patent US7273710B2, “Method for screening MCH receptor antagonist/agonist” (Takeda Pharmaceutical Company Limited, priority 2000, dated 2007).

Assay [1] addresses T1, human SLT (Homo sapiens, UniProt Q969V1).
T1 construct: expressed in transfected cells; host or cells: membrane fraction of CHO/hSLT cells (CHO dhfr- transfected with pAKKO-hSLT)
Kind of assay: FLIPR assay of intracellular Ca ion level in human SLT-expressing CHO cells. It counts as cell-based. Particulars: CHO/hSLT cells, Fluo 3-AM, FIG. 5.

For assay [2], the target named is T1, human SLT. The assay can be described thus: Inhibition of forskolin-stimulated cAMP production in human SLT-expressing CHO cells. It counts as cell-based. Particulars: CHO/hSLT cells, 2 μM forskolin, FIG. 2.
For assay [3], the target named is T1, human SLT. The assay can be described thus: Release of [3H] arachidonic acid metabolite in human SLT-expressing CHO cells. The class given is cell-based. The settings on record: CHO/hSLT cells, FIG. 6.
The target of assay [4] is T1, human SLT. Kind of assay: Receptor binding assay with [125I]-labeled MCH (4-19) on cell membrane fraction of human SLT-expressing CHO cells. Particulars: membrane fractions from CHO/hSLT clones #1, 26, 36, 25° C., 60 minutes, FIG. 3.

Positions of bridges follow the written chain, without caps; N, C: chain ends. No end group written: not given here.

T1 sequence (Q969V1 whole entry): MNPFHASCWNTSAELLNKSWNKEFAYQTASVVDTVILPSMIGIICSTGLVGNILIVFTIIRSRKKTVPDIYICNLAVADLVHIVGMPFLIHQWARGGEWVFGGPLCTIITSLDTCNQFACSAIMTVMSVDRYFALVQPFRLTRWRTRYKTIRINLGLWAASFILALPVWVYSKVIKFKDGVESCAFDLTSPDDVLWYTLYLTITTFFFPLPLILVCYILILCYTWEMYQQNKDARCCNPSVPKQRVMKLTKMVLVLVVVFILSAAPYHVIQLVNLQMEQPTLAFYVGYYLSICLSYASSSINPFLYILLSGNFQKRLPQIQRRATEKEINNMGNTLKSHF

Regarding `CSCC[C@@H]1NC(=O)[C@@H](NC(=O)[C@H](CCCNC(=N)N)NC(=O)[C@H](CC(C)C)NC(=O)[C@H](CCSC)NC(=O)[C@H](CC(=O)O)NC(=O)[C@H](Cc2ccccc2)NC(=O)[C@@H](N)CC(=O)O)CSSC[C@@H](C(=O)N[C@@H](Cc2c[nH]c3ccccc23)C(=O)N[C@@H](CCC(N)=O)C(=O)N[C@H](C(=O)O)C(C)C)NC(=O)[C@@H]2CCCN2C(=O)[C@H](CCCNC(=N)N)NC(=O)[C@H](Cc2ccc(O)cc2)NC(=O)[C@H](C(C)C)NC(=O)[C@H](CCCNC(=N)N)NC(=O)CNC(=O)[C@H](CC(C)C)NC1=O` [MCH, Asp-Phe-Asp-Met-Leu-Arg-Cys-Met-Leu-Gly-Arg-Val-Tyr-Arg-Pro-Cys-Trp-Gln-V al], the “increase of the intracellular Ca ion level” value at human SLT [1] is recorded as “increases the intracellular Ca ion level in human SLT-expressing CHO cells in a manner dependent on the concentration”. The “concentration at which the intracellular cAMP was clearly decreased” value on human SLT [2] (37° C., 30 minutes) amounted to 30 pM. Besides, the “inhibition of cAMP production, concentration dependence” value against human SLT [2] is “decreased in a dose-dependent manner”. Further, on human SLT [3], the “activity to induce the release of the arachidonic acid metabolite” value is reported as “in a does-dependent manner”.
As to “[^125I]-[N-3-(4-hydroxy-3-iodophenyl)propionyl)-Met^4]-MCH (4-19) ({3‑(4-hydroxy-3-(125I)iodophenyl)propionyl}-MLRCMLGRVYRPCWQV; disulfide 4-13) [[^125I]-labeled MCH (4-19)]”, in the assay with human SLT [4], the “specific binding to cell membrane fraction” value is on record as “dependent on the concentration of membrane fraction was observed”.
